Results on 27 molecules are retold here after publication PMC8199339, “Propellanes as Rigid Scaffolds for the Stereodefined Attachment of σ-Pharmacophoric Structural Elements to Achieve σ Affinity” (International Journal of Molecular Sciences, 2021).

Test [1] has as its target T1, σ2 receptor (Rattus norvegicus, UniProt Q5U3Y7).
T1 construct: The thawed rat liver membrane preparation; tissue Harlan-Winkelmann, Borchen, Germany (animal organs); host or cells: rat liver membrane homogenate
T1 sequence (Q5U3Y7 1-176): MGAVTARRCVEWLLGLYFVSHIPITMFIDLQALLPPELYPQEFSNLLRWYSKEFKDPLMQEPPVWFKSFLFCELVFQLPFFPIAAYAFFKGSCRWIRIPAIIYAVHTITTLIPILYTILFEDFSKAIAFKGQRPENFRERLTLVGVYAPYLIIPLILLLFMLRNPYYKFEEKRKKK
Kind of test: σ2 receptor binding assay, radioligand [3H]di-o-tolylguanidine, rat liver membrane preparation. As to conditions: for inhibition at 1 µM / inhibition of the radioligand binding, σ2: test compound concentration of 1 µM; for Ki: read-out: Ki (nM) σ2.

Test [2] concerns the target T2, σ1 receptor (Cavia porcellus, UniProt Q60492).
T2 construct: thawed membrane preparation of guinea pig brain; tissue Harlan-Winkelmann, Borchen, Germany (animal organs); host or cells: guinea pig brain membrane homogenate
The experiment in a line: σ1 receptor binding assay, radioligand [3H]-(+)-pentazocine, guinea pig brain membrane preparation. As to conditions: for inhibition at 1 µM / inhibition of the radioligand binding, σ1: test compound concentration of 1 µM.

Setting [3] is: [3H]-(+)-pentazocine, guinea pig brain, mean of three experiments (± SEM), values without SEM mean of two, read-out: Ki (nM) σ1.
[4] abbreviates: approximate statement in text, read-out: σ1 affinity, Ki (in the range of).

Like-named read-outs stand apart in the source and are kept apart here.

A word on the inhibition: it is the relative decrease from the control value, in per cent. The term Ki denotes the equilibrium dissociation constant of an inhibitor or competing ligand from its target.

T2 sequence (Q60492 whole entry): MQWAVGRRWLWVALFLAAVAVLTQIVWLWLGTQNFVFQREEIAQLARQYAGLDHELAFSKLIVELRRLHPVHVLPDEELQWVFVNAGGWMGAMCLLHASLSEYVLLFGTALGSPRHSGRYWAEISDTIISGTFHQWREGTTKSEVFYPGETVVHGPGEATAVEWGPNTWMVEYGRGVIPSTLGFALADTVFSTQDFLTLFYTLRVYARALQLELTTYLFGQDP

For the molecule `OC1CC23CCCCC2(C1)CC(NCc1ccccc1)C3` (mixture of isomers) [11-syn-13, [(8-syn-11-syn and 8-syn-11-anti)-11-(Benzylamino)[4.3.3]propellan-8-ol], testing at 1 µM in test [1] gave an inhibition of 27%. Further, the Ki in test [2] (setting [3]) is 619 nM.

Take `COc1ccc(NC2CC34CCCCC3(C2)CC(OC(=O)Nc2cc(C)ccc2OC)C4)cc1` (stereo not drawn) [8-anti-4m, [(8-anti-11-anti and 8-anti-11-syn)-11-(4-Methoxyphenylamino)[4.3.3]propellan-8-yl] N-(2-methoxy-5-methylphenyl)carbamate]: the inhibition at 1 µM turned out to be 0% in test [1] and 11% in test [2].

`COc1ccc(C)cc1NC(=O)OC1CC23CCCCC2(CC(NCCc2c[nH]c4ccccc24)C3)C1` (stereo not drawn) [8-anti-4k, [(8-anti-11-anti and 8-anti-11-syn)-11-[2-(Indol-3-yl)ethylamino][4.3.3]propellan-8-yl] N-(2-methoxy-5-methylphenyl)carbamate] displayed an inhibition at 1 µM in test [1] of 0%. Besides, the inhibition constant (Ki) in test [2] (setting [3]) is 1200 nM; in test [2] (setting [4]), approximately 1000 nM.

Regarding `COc1ccc(C)cc1NC(=O)OC1CC23CCCCC2(CC(Nc2ccccc2)C3)C1` (stereo not drawn) [8-anti-4l, [(8-anti-11-anti and 8-anti-11-syn)-11-(Phenylamino)[4.3.3]propellan-8-yl] N-(2-methoxy-5-methylphenyl)carbamate], the inhibition at 1 µM in test [1] was found to be 0%; in test [2], 13%.

Turning to `COc1ccc(C)cc1NC(=O)OC1CC23CCCCC2(CC(NCc2ccc(N(C)C)cc2)C3)C1` (stereo not drawn) [8-anti-4h, [(8-anti-11-anti and 8-anti-11-syn)-11-[(4-Dimethylamino)benzylamino]-[4.3.3]propellan-8-yl] N-(2-methoxy-5-methylphenyl)carbamate], the inhibition at 1 µM in test [1] and in test [2] was 0% throughout.

For `c1ccc(CNC2CC34CCCCC3(C2)CC2(C4)OCCO2)cc1` (stereo not drawn) [syn-14], in test [1] (listed as syn- 14, 1 µM), the “inhibition of the radioligand binding, σ2” value (shortened to “inhibition … σ2”) stood at 7%. Moreover, the Ki in test [2] (setting [3]) amounted to 750 nM.

With `COc1ccc(C)cc1NC(=O)OC1CC23CCCCC2(CC(NCc2ccc(OC)c(OC)c2)C3)C1` (stereo not drawn) [8-anti-4b, [(8-anti-11-anti and 8-anti-11-syn)-11-(3,4-Dimethoxbenzylamino)[4.3.3]propellan-8-yl] N-(2-methoxy-5-methylphenyl)carbamate], the inhibition at 1 µM was determined as 1% in test [1] and 6% in test [2].

In the case of `NC1CC23CCCCC2(CCC3)C1` (stereo not shown) [compound 16], the figures for the inhibition at 1 µM in test [1] and in test [2] were 13% and 5%, respectively.

For `COc1ccc(C)cc1NC(=O)N(Cc1ccccc1)C1CC23CCCCC2(CC(O)C3)C1` (stereo not drawn) [anti,anti-22, 1 -Benzyl-1-{(8-anti,11-anti)-11-hydroxy[4.3.3]propellan-8-yl}-3-(2-methoxy-5-methylphenyl)urea], the “inhibition … σ2” value in test [1] (1 µM) is reported as 0%. For the same molecule, in test [2], the “inhibition of the radioligand binding, σ1” value (“inhibition … σ1” below) is given as 0%.

With `COc1ccc(C)cc1NC(=O)OC1CC23CCCCC2(CC(NCc2ccc(Cl)cc2)C3)C1` (stereo not drawn) [8-anti-4c, [(8-anti-11-anti and 8-anti-11-syn)-11-(4-Chlorobenzylamino)[4.3.3]propellan-8-yl] N-(2-methoxy-5-methylphenyl)carbamate], the inhibition at 1 µM worked out at 12% in test [1] and 6% in test [2].

As for `c1ccc(CNC2CC34CCCCC3(C2)CC2(C4)OCCO2)cc1` (stereo not drawn) [anti-14, (11′-anti)-Spiro-([1,3]dioxolane-2,8′-(N-benzyl[4.3.3]propellan))-11′-amine], the “inhibition … σ2” value in test [1] (1 µM) worked out at 0%. The Ki in test [2] (setting [3]) turned out to be 1400 nM.

`COc1ccc(C)cc1NC(=O)N(Cc1ccccc1)C1CC23CCCCC2(CC(O)C3)C1` (stereo not drawn) [syn,anti-22, 1 -Benzyl-1-{(8-syn,11-anti)-11-hydroxy[4.3.3]propellan-8-yl}-3-(2-methoxy-5-methylphenyl)urea]: the “inhibition … σ2” value in test [1] (1 µM) worked out at 8%. The “inhibition … σ1” value in test [2] was 0%.

Regarding `COc1ccc(C)cc1NC(=O)OC1CC23CCCCC2(CC(Nc2ccc(N)cc2)C3)C1` (stereo not drawn) [8-anti-4o, [(8-anti-11-anti and 8-anti-11-syn)-11-(4-Aminophenylamino)[4.3.3]propellan-8-yl] N-(2-methoxy-5-methylphenyl)carbamate], in test [1], the inhibition constant (Ki) came to 12000 nM. At 1 µM the inhibition in test [2] was 16%.

In the case of `COc1ccc(C)cc1NC(=O)N(Cc1ccccc1)C1CC23CCCCC2(CC(O)C3)C1` (stereo not drawn) [syn,syn-22, 1-benzyl-1-{(8-syn,11-syn)-11-hydroxy[4.3.3]propellan-8-yl}-3-(2-methoxy-5-methylphenyl)urea], the “inhibition … σ2” value in test [1] (1 µM) came out at 0%. Moreover, in test [2], the “inhibition … σ1” value amounted to 0%.

For `COc1ccc(C)cc1NC(=O)OC1CC23CCCCC2(CC(NCc2ccco2)C3)C1` (mixture of isomers) [8-syn-4i, [(8-syn-11-syn and 8-syn-11-anti)-11-[(Furan-2-yl-mehtyl)amino][4.3.3]propellan-8-yl] N-(2-methoxy-5-methylphenyl)carbamate], in test [1], at 1 µM the inhibition was 0%. Further, in test [2] (setting [3]), the Ki is 276 nM.

`O=C1CC23CCCCC2(C1)CC(NC(=O)Nc1ccc(F)c(F)c1)C3` (stereo not drawn) [syn-25, 1-(3,4-. Difluorophenyl)-3-(8-syn-11-oxo[4.3.3]propellan-8-yl)urea] registered an inhibition at 1 µM in test [1] of 0%. Besides, the “inhibition … σ1” value in test [2] (1 µM) was determined as 10%.

With `O=C(Nc1ccc(F)c(F)c1)NC1CC23CCCCC2(CC(O)C3)C1` (stereo not drawn) [anti,anti-26, 1-(3,4-Difluorophenyl)-3-(8-anti-11-anti-11-hydroxy[4.3.3]propellan-8-yl)urea], the inhibition at 1 µM in test [1] and in test [2] was 0% in each case.

Regarding `COc1ccc(C)cc1NC(=O)OC1CC23CCCCC2(CC(NCc2ccc(Cl)c(Cl)c2)C3)C1` (stereo not drawn) [8-anti-4d, [(8-anti-11-anti and 8-anti-11-syn)-11-(3,4-Dichlorobenzylamino)[4.3.3]propellan-8-yl] N-(2-methoxy-5-methylphenyl)carbamate], the inhibition at 1 µM in test [1] is 4%; in test [2] it was 0%.

As to `COc1ccc(C)cc1NC(=O)OC1CC23CCCCC2(CC(NCCO)C3)C1` (stereo not drawn) [8-anti-4s, [(8-anti-11-anti and 8-anti-11-syn)-11-(2-Hydroxyethyl-1-amino)[4.3.3]propellan-8-yl] N-(2-methoxy-5-methylphenyl)carbamate], the results for the inhibition at 1 µM in test [1] and in test [2] were 0% and 12%, respectively.

Turning to `c1ccc(CNC2CC34CCCCC3(CCC4)C2)cc1` (stereo not shown) [compound 8], the inhibition at 1 µM in test [1] came out at 39%. For the same molecule, the inhibition constant Ki in test [2] (setting [3]) stood at 594 nM. Moreover, the “reduction of σ1 affinity compared to azapropellane 9a” value in test [2] (compared to 9a) is given as 35 fold. For the same molecule, the “selectivity for the σ1 receptor over the σ2 receptor” value in test [2] (σ1 over σ2) is listed as “at least 10 fold”.

As for `COc1ccc(C)cc1NC(=O)N(Cc1ccccc1)C1CC23CCCCC2(CC(O)C3)C1` (stereo not drawn) [anti,syn-22, 1-benzyl-1-{(8-anti,11-syn)-11-hydroxy[4.3.3]propellan-8-yl}-3-(2-methoxy-5-methylphenyl)urea], the “inhibition … σ2” value in test [1] (1 µM) stood at 17%. In test [2], this molecule yielded an inhibition at 1 µM of 0%.

As to `COc1ccc(NC2CC34CCCCC3(C2)CC(OC(=O)Nc2cc(C)ccc2OC)C4)cc1Cl` (stereo not drawn) [8-anti-4n, [(8-anti-11-anti and 8-anti-11-syn)-11-(3-Chloro-4-methoxyphenylamino)-[4.3.3]propellan-8-yl] N-(2-methoxy-5-methylphenyl)carbamate], the inhibition at 1 µM in test [1] and in test [2] was 0% throughout.

In the case of `COc1ccc(C)cc1NC(=O)OC1CC23CCCCC2(CC(NCc2ccc(C)cc2C)C3)C1` (stereo not drawn) [8-anti-4e, [(8-anti-11-anti and 8-anti-11-syn)-11-(2,4-Dimethylbenzylamino)[4.3.3]propellan-8-yl] N-(2-methoxy-5-methylphenyl)carbamate], in test [1], the Ki stood at 1100 nM. The same molecule displayed an inhibition at 1 µM in test [2] of 0%.

`COc1ccc(C)cc1NC(=O)OC1CC23CCCCC2(CC(NCCCCCO)C3)C1` (stereo not drawn) [8-anti-4t, [(8-anti-11-anti and 8-anti-11-syn)-11-(5-Hydroxypentylamino)[4.3.3]propellan-8-yl] N-(2-methoxy-5-methylphenyl)carbamate] had an inhibition at 1 µM in test [1] of 2%. In addition, the Ki in test [2] (setting [3]) was 454 nM.

In the case of `COc1ccc(C)cc1NC(=O)OC1CC23CCCCC2(CC(NCc2ccco2)C3)C1` (mixture of isomers) [8-anti-4i, [(8-anti-11-anti and 8-anti-11-syn)-11-[(Furan-2-yl-mehtyl)amino][4.3.3]propellan-8-yl] N-(2-methoxy-5-methylphenyl)carbamate], the Ki in test [1] was more than 6000 nM; in test [2] (setting [3]), 924 nM; in test [2] (setting [4]), approximately 1000 nM.

As to `COc1ccc(C)cc1NC(=O)OC1CC23CCCCC2(CC(NCc2cc(C(F)(F)F)cc(C(F)(F)F)c2)C3)C1` (stereo not drawn) [8-anti-4f, [(8-anti-11-anti and 8-anti-11-syn)-11-[(3,5-Bis(trifluoromethyl)benzylamino]-[4.3.3]propellan-8-yl] N-(2-methoxy-5-methylphenyl)carbamate], the inhibition at 1 µM in test [1] and in test [2] was 0% each time.

As to `COc1ccc(C)cc1NC(=O)OC1CC23CCCCC2(CC(NCc2ccc([N+](=O)[O-])cc2)C3)C1` (stereo not drawn) [8-anti-4g, [(8-anti-11-anti and 8-anti-11-syn)-11-(4-Nitrobenzylamino)[4.3.3]propellan-8-yl] N-(2-methoxy-5-methylphenyl)carbamate], in test [1], the Ki turned out to be 1950 nM. The inhibition at 1 µM in test [2] was found to be 24%.
